Measured values from paper PMC1790702, “Non-Metabolic Membrane Tubulation and Permeability Induced by Bioactive Peptides” (PLoS ONE, 2007).
Read-outs that look alike come from different tables or passages of the source.

How the values were obtained:
[1] = Small angle X-ray scattering of multilamellar vesicles, electron density profiles; assay type: physicochemical; conditions: for S^−1 (repeat distance), Ld1 phase / S^−1 (repeat distance), Ld2 phase: 5 mM HEPES pH 7.4, 20°C; for dwater (thickness of the hydration layer), Ld2 phase: peptide-free 2.19; for dwater (thickness of the hydration layer), Ld1 phase: peptide-free 2.23; for dbilayer (thickness of the membrane bilayer), Ld1 phase: peptide-free 3.90; for Change of bilayer thickness, Ld1 phase / Change of membrane thickness, Ld2 phase: versus peptide-free PC/PG (9/1) MLVs, P/L 1/20 (w/w)
Procedure: Briefly, samples for SAXS examination were prepared by dissolving dry lipids in chloroform/methanol (2/1, vol/vol) and mixing to obtain the indicated proportions. The solvent was subsequently evaporated under a stream of oxygen-free dry nitrogen at 45°C and traces of solvent removed by a storage under high vacuum for 2 days. In order to obtain the Multiple Lamellar Vesicles (MLVs) the dry lipids were hydrated with an equal weight of buffer (5 mM HEPES pH 7.4). The aqueous lipid dispersion was thoroughly stirred to obtain a homogeneous dispersion, sealed under argon and kept until examination at 4°C. For X-ray measurements, lipid samples (∼20 µl) were deposited between two thin mica windows and mounted on a programmable thermal stage (Linkam, UK). The temperature was monitored by a thermocouple (Quad Service, Poissy, France) inserted directly into the lipid dispersion. Samples were exposed for 30 seconds to the beam (1.5 Å wavelength). The SAXS quadrant detector response was corrected for the uneven channel response using a static radioactive […] and S was calibrated for d-spacing using hydrated rat tail collagen. Information on the setup, calibration, and facilities are available on the station web site (http://www.srs.dl.ac.uk/ncd/station82/description.html).
The electron density profiles of lipid bilayers were obtained by Fourier synthesis of x-ray diffraction patterns. Integrated densities were derived from five diffraction orders (estimated spatial resolution <0.12 nm) by measuring the area under each diffraction peak separated and integrated using the software Peakfit (Seasolve).

[2] = Membrane deformations on giant unilamellar vesicles, phase contrast video-microscopy
Procedure: Giant unilamellar vesicles (GUVs) were obtained by electroformation as described in [49]. Briefly, 1.5 µl of PC/PG (9/1, w/w) solution (0.4 mg/ml in chloroform/methanol 9/1) were spread on each platinum electrode. The lipid film was dried for half an hour under a gentle stream of nitrogen. The chamber was placed in an inverted microscope (Zeiss Axiovert 200M) and a thermocouple positioned to monitor the temperature (25°C). The electrodes were then completely hydrated with 2 ml of a low ionic strength buffer (HEPES 0.5 mM, pH 7.4 and conductivity 20 µS/cm). Immediately after buffer addition, a low frequency alternating field (5 Hz and 1 V) was applied on the electrodes for at least 2 hours. GUVs of diameter between 10 to 100 µm were observed. […] The observation temperature was 25°C.

CHO cells = assay: Cytotoxicity, CCK8 cell counting kit; assay type: cell-based; conditions: for Lethality: after 48 hours of incubation of CHO cells with 10 µM peptides, CCK8, DMEM plus 10 % FCS, 37°C
Procedure: (§1) Annexin 2-GFP expression vector was a kind gift of Dr Stephen Moss (London UK). The annexin2-GFP transfected MDCK cloning will be published elsewhere. MDCK cells were cultured as described. Peptides were added at different concentrations and the annexin-GFP fluorescence was followed in a Zeiss inverted microscope. Films were acquired with Metamorph software. Cytotoxicity in CHO cells was evaluated using the CCK8 cell counting kit (Dojindo Laboratories). Briefly, cell suspension (100 µl, 1500 CHO cells per well) were seeded in DMEM plus 10 % FCS in 96-well microtiter plate at 37°C. 10 µl of peptides were added twice to the cells after 24 and 48 hours of cell culture to obtain concentrations of 1, 10, 20 and 50 µM and the toxicity was evaluated 48 after treatment.

[3] = Calcein leakage from LUVs; conditions: 25°C; for Calcein release: peptide/lipid ratio of 1/2, LUVs PC/PG/[14C]PC 9/1/0.01, 70 mM calcein, HEPES 10 mM pH 7.4, 5 min after peptide addition, fluorescence, relative to lysis with 1% Triton X-100
Procedure: (§2) Large unilamellar vesicles (LUV) were prepared by extrusion through a polycarbonate filter (pore diameter 100 nm) in an extrusion device from Avestin as described in [38]. To obtain calcein loaded LUVs, at 2 mg/ml lipid concentration (PC/PG/ [^14C] PC 9/1/0.01 mol ratio), a solution in chloroform was dried under a gentle stream of nitrogen and maintained under vacuum for at least 2 h to ascertain removal of residual solvent. Then, the dried lipid film was hydrated with 1 ml of 70 mM calcein solution in HEPES 10 mM pH 7.4, vigorously vortexed and extruded. Free calcein was separated by passing the suspension trough two gel filtration columns in tandem (Econo-Pac 10 DG, Bio-Rad). The final lipid concentration was quantified measuring the [^14C] PC radiactivity with a liquid scintillation counter LS 6000 SC (Beckman Coulter France).
The release of calcein after 5 minutes of peptide exposure to LUVs was measured by spectrofluorimetry (Varian eclipse) at excitation and emission wavelengths of 490 nm and 500–650 nm, respectively. […] Leakage was expressed as a percent relative of the total amount of dye released by LUVs lysis with 1% Triton X-100, according to equation: % release = 100×(F(t)−F0)/(FT−F0). F(t) is the fluorescence intensity at time t, F0 is the fluorescence intensity before peptide addition and FT the fluorescence intensity after LUVs lysis.

[4] = LUV aggregation by turbidimetry; conditions: for Peptide/Lipid ratio at which LUVs are aggregated efficiently: discussion, from figure 5; for P/L ratio at the plateau of LUV aggregation / P/L ratio at which LUV aggregation decreases: HEPES 10 mM pH 7.4, 20 min; for P/L ratio at the plateau of LUV aggregation / Peptide/lipid mass ratio (P/L) at which LUV aggregation starts / P/L ratio at which LUV aggregation decreases: 25°C; for Peptide/lipid mass ratio (P/L) at which LUV aggregation starts: turbidity, absorbance at 340 nm, 10 µg LUVs in 500 µl HEPES 10 mM pH 7.4, 20 min after peptide addition; for P/L ratio at which LUV aggregation decreases: peak-like profile
Procedure: as §2
LUVs aggregation was monitored by turbidimetry (absorbance at 340 nm) in a Cary spectrophotometer (Varian) as described. Peptides were added to a 500 µl quartz cuvette containing 10 µg of LUVs in a HEPES 10 mM pH 7.4 buffer and the absorbance was followed during 20 min after peptide exposure. At this time, membrane aggregation attained the plateau.

[5] = system: Annexin 2-GFP transfected MDCK cells; assay: Cell permeability, Ca2+ influx monitored by Annexin 2-GFP movement; assay type: cell-based; conditions: for Permeability towards ions at high peptide concentration: 100 µM peptide; for Permeability towards ions at high peptide concentration / Ca2+ influx and mobilization of annexin 2 from cytosol to the plasma membrane: Annexin 2-GFP MDCK cells; for Cell permeabilization: monitored by calcium permeability inducing annexin 2 movement in MDCK cells; for Ca2+ influx and mobilization of annexin 2 from cytosol to the plasma membrane: 10 µM peptide, in 10 minutes
Procedure: as §1

[6] = Tryptophan fluorescence, membrane binding; conditions: excitation 280 nm, PC/PG (9/1) LUVs, 25°C
Procedure: Tryptophan fluorescence was measured following the recommendations described in [51]. Excitation wavelength was 280 nm, and emission spectrum was collected (290–600 nm). Excitation and emission slits were 6 nm and 5 nm respectively. A cross-oriented configuration of the polarizer (Expol = 90°, Empol = 0°) was used in order to reduce LUVs diffusion artefacts.

[7] = PC/PG (9/1) MLVs, peptide/lipid 1/20 (w/w)
[8] = PC/PG (9/1) MLVs, peptide/lipid 1/20 (w/w), 20°C
[9] = PC/PG (9/1) MLVs, peptide/lipid 1/20 (w/w), 20°C, peptide-free 3.62

RPKPQQFFGLM-NH2 [SP, Substance P, neuromodulator, primary amphipathic peptide, free N-terminal amino group, reference compound]
dbilayer (thickness of the membrane bilayer), Ld2 phase [1]: 3.54 nm | S^−1 (repeat distance), Ld1 phase [1, 7]: 5.96 nm | S^−1 (repeat distance), Ld2 phase [1, 7]: 5.75 nm | dwater (thickness of the hydration layer), Ld2 phase [1, 8]: 2.21 nm | dwater (thickness of the hydration layer), Ld1 phase [1, 8]: 2.34 nm | dbilayer (thickness of the membrane bilayer), Ld1 phase [1, 8]: 3.62 nm | Change of bilayer thickness, Ld1 phase ([1]; 20°C): −2.8 Å | GUV morphology at high peptide concentration ([2]; after 6 hours of incubation, 50 µl of peptide solution at 0.5 mM in 2 ml of buffer): did not perturb GUVs morphology | Lethality (CHO cells): 0% | Calcein release [3]: 8% | LUV aggregation ([4]; turbidity at 340 nm, HEPES 10 mM pH 7.4, 25°C): does not aggregate LUVs | Permeability towards ions at high peptide concentration [5]: did not induce any increase in permeability towards ions | Cell permeabilization [5]: no

RQIKIWFQNRRMKWKK-NH2 [pAntp, Penetratin, cell-penetrating peptide, basic, non-amphipathic, 16 residues, reference compound]
S^−1 (repeat distance), Ld1 phase [1, 7]: 6.06 nm | S^−1 (repeat distance), Ld2 phase [1, 7]: 5.94 nm | dwater (thickness of the hydration layer), Ld2 phase [1, 8]: 2.31 nm | dwater (thickness of the hydration layer), Ld1 phase [1, 8]: 2.28 nm | dbilayer (thickness of the membrane bilayer), Ld2 phase [1, 9]: 3.63 nm | dbilayer (thickness of the membrane bilayer), Ld1 phase [1, 8]: 3.78 nm | Time for growing micro-tubes to invade the entire vesicle internal volume ([2]; GUVs PC/PG 9/1, 25°C): less than 20 minutes | Lethality (CHO cells): 0% | Calcein release [3]: 11% | Peptide/Lipid ratio at which LUVs are aggregated efficiently [4]: 1/20 | P/L ratio at the plateau of LUV aggregation ([4]; turbidity at 340 nm): 1/15 | Peptide/lipid mass ratio (P/L) at which LUV aggregation starts [4]: 1/25 | P/L ratio of peptide-membrane saturation (maximal shift in emission wavelength) [6]: 1/10 | Permeability towards ions at high peptide concentration [5]: did not induce any increase in permeability towards ions | Cell permeabilization [5]: no

RRWRRWWRRWWRRWRR-Bi [RW16, secondary amphipathic polyarginine-tryptophane peptide with biotin (Bi) on N-terminus]
S^−1 (repeat distance), Ld1 phase [1, 7]: 6.08 nm | S^−1 (repeat distance), Ld2 phase [1, 7]: 5.89 nm | dwater (thickness of the hydration layer), Ld2 phase [1, 8]: 2.18 nm | dwater (thickness of the hydration layer), Ld1 phase [1, 8]: 2.25 nm | dbilayer (thickness of the membrane bilayer), Ld2 phase [1, 9]: 3.71 nm | dbilayer (thickness of the membrane bilayer), Ld1 phase [1, 8]: 3.83 nm | Change of membrane thickness, Ld2 phase ([1]; 20°C): 0.9 Å | Lethality (CHO cells): 0% | Calcein release [3]: 14% | P/L ratio at which LUV aggregation decreases ([4]; turbidity at 340 nm): 1/10 | Peptide/lipid mass ratio (P/L) at which LUV aggregation starts [4]: around 1/25 | P/L ratio of peptide-membrane saturation (maximal shift in emission wavelength) [6]: 1/10 | Ca2+ influx and mobilization of annexin 2 from cytosol to the plasma membrane [5]: provoked the Ca^2+ influx | Cell permeabilization [5]: yes

RRRRRRRRR-NH2 [R9, Polyarginine, cell-penetrating peptide, nine arginines, free N-terminal amino group, reference compound]
Time for growing micro-tubes to invade the entire vesicle internal volume ([2]; GUVs PC/PG 9/1, 25°C): less than 20 minutes | Lethality (CHO cells): 0% | Calcein release [3]: 8% | Peptide/Lipid ratio at which LUVs are aggregated efficiently [4]: 1/50 | P/L ratio at the plateau of LUV aggregation ([4]; turbidity at 340 nm): 1/45 | Peptide/lipid mass ratio (P/L) at which LUV aggregation starts [4]: 1/80 | Permeability towards ions at high peptide concentration [5]: did not induce any increase in permeability towards ions | Cell permeabilization [5]: no

RRLRRLLRRLLRRLRR-Bi [RL16, secondary amphipathic polyarginine-leucine peptide with biotin (Bi) on N-terminus]
S^−1 (repeat distance), Ld1 phase [1, 7]: 6.20 nm | S^−1 (repeat distance), Ld2 phase [1, 7]: 6.01 nm | dwater (thickness of the hydration layer), Ld2 phase [1, 8]: 2.26 nm | dwater (thickness of the hydration layer), Ld1 phase [1, 8]: 2.27 nm | dbilayer (thickness of the membrane bilayer), Ld2 phase [1, 9]: 3.75 nm | dbilayer (thickness of the membrane bilayer), Ld1 phase [1, 8]: 3.93 nm | Change of membrane thickness, Ld2 phase ([1]; 20°C): +1.3 Å | GUV integrity ([2]; GUVs PC/PG 9/1, 25°C): complete GUV destruction after few seconds | Cell toxicity (CHO cells; CHO cells, 48 hours of peptide incubation): the only toxic peptide | Lethality (CHO cells): 55% | P/L ratio at which a significant calcein release from LUVs is induced ([3]; 5 min after peptide addition): 1/5 | Calcein release [3]: 38% | P/L ratio at which LUV aggregation decreases ([4]; turbidity at 340 nm): 1/10 | Peptide/lipid mass ratio (P/L) at which LUV aggregation starts [4]: around 1/25 | Ca2+ influx and mobilization of annexin 2 from cytosol to the plasma membrane [5]: provoked the Ca^2+ influx | Cell permeabilization [5]: yes

RRWWRRWRR-NH2 [RW9, short secondary amphipathic polyarginine-tryptophane peptide, free N-terminal amino group]
S^−1 (repeat distance), Ld1 phase [1, 7]: 5.96 nm | S^−1 (repeat distance), Ld2 phase [1, 7]: 5.74 nm | dwater (thickness of the hydration layer), Ld2 phase [1, 8]: 2.19 nm | dwater (thickness of the hydration layer), Ld1 phase [1, 8]: 2.33 nm | dbilayer (thickness of the membrane bilayer), Ld2 phase [1, 9]: 3.55 nm | dbilayer (thickness of the membrane bilayer), Ld1 phase [1, 8]: 3.63 nm | Change of bilayer thickness, Ld1 phase ([1]; 20°C): −2.7 Å | Lethality (CHO cells): 0% | Calcein release [3]: 7% | Peptide/Lipid ratio at which LUVs are aggregated efficiently [4]: 1/30 | P/L ratio at which LUV aggregation decreases ([4]; turbidity at 340 nm): 1/10 | Peptide/lipid mass ratio (P/L) at which LUV aggregation starts [4]: 1/35 | P/L ratio of peptide-membrane saturation (maximal shift in emission wavelength) [6]: 1/15 | Permeability towards ions at high peptide concentration [5]: did not induce any increase in permeability towards ions | Cell permeabilization [5]: no
